target: Acetylcholinesterase (Homo sapiens, UniProt P22303); assay: Inhibition of AChE (unknown origin) using acetylthiocholine chloride as substrate after 15 min by Ellman's method
Sequence (P22303 whole entry): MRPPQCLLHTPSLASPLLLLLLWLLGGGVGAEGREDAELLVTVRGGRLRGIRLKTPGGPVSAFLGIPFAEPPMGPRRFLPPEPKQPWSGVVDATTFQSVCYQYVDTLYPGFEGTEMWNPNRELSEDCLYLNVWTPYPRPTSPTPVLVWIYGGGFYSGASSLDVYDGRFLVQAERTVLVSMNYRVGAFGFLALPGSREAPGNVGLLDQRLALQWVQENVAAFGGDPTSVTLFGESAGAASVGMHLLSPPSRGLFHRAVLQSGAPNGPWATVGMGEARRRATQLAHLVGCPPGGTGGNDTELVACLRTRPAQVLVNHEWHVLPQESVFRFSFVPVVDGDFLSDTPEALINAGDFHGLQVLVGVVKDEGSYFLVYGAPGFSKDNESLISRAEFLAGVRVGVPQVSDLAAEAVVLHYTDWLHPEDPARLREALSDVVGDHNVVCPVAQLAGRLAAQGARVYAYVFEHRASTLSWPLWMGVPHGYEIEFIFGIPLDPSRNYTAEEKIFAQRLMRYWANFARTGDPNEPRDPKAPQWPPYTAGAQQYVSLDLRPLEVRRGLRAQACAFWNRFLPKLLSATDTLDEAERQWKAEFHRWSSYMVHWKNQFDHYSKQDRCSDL

Row | Compound | IC50
1 | CCOC(=O)C1=C(C)Oc2nc3c(c(N)c2[C@H]1c1cccc([N+](=O)[O-])c1)CCCC3 | 1.91 µM
2 | CCOC(=O)C1=C(C)Oc2nc3c(c(N)c2[C@H]1c1ccccc1)CCC3 | 3.89 µM
3 | CCOC(=O)C1=C(C)Oc2nc3c(c(N)c2[C@H]1c1cccnc1OC)CCCC3 | 3.89 µM
4 | CCOC(=O)C1=C(C)Oc2nc3c(c(N)c2[C@H]1c1cccnc1Br)CCCC3 | 1.86 µM
5 | CCOC(=O)C1=C(C)Oc2nc3c(c(N)c2[C@H]1c1cccnc1Cl)CCCC3 | 2.14 µM
6 | CC1(C)CC(=O)C2=C(C1)Oc1nc3c(c(N)c1[C@H]2c1ccccc1)CCCC3 | 49 µM
7 | CC1(C)CC(=O)C2=C(C1)Oc1nc3c(c(N)c1[C@H]2c1ccc(F)cc1)CCCC3 | 69.2 µM
8 | CC1(C)CC(=O)C2=C(C1)Oc1nc3c(c(N)c1[C@H]2c1ccccc1C(F)(F)F)CCCC3 | 17.8 µM
9 | CC1(C)CC(=O)C2=C(C1)Oc1nc3c(c(N)c1[C@H]2c1cccc([N+](=O)[O-])c1)CCCC3 | 12 µM
10 | CC1(C)CC(=O)C2=C(C1)Oc1nc3c(c(N)c1[C@H]2c1ccc([N+](=O)[O-])cc1)CCCC3 | 93.3 µM
11 | Cc1ccc([C@H]2C3=C(CC(C)(C)CC3=O)Oc3nc4c(c(N)c32)CCCC4)cc1 | 51.3 µM
12 | COc1ccccc1[C@H]1C2=C(CC(C)(C)CC2=O)Oc2nc3c(c(N)c21)CCCC3 | 7.08 µM
13 | COc1cccc([C@H]2C3=C(CC(C)(C)CC3=O)Oc3nc4c(c(N)c32)CCCC4)c1 | 21.4 µM
14 | COc1ccc([C@H]2C3=C(CC(C)(C)CC3=O)Oc3nc4c(c(N)c32)CCCC4)cc1 | 40.7 µM
15 | CCOC(=O)C1=C(C)Nc2nc3c(c(N)c2[C@H]1c1ccccc1)CCCC3 | 0.0794 µM
16 | CCOC(=O)C1=C(C)Nc2nc3c(c(N)c2[C@H]1c1ccc([N+](=O)[O-])cc1)CCCC3 | 0.603 µM
17 | CCOC(=O)C1=C(C)Nc2nc3c(c(N)c2[C@H]1c1ccc(C)cc1)CCCC3 | 0.0912 µM
18 | CC1(C)CC(=O)C2=C(C1)Nc1nc3c(c(N)c1[C@H]2c1ccccc1)CCCC3 | 0.324 µM
19 | CC1(C)CC(=O)C2=C(C1)Nc1nc3c(c(N)c1[C@H]2c1ccc(F)cc1)CCCC3 | 0.537 µM
20 | Cc1ccc([C@H]2C3=C(CC(C)(C)CC3=O)Nc3nc4c(c(N)c32)CCCC4)cc1 | 0.229 µM
21 | COc1ccc([C@H]2C3=C(CC(C)(C)CC3=O)Nc3nc4c(c(N)c32)CCCC4)cc1 | 0.219 µM
22 | CC1(C)CC(=O)C2=C(C1)Nc1nc3c(c(N)c1[C@H]2c1ccncc1)CCCC3 | 0.603 µM

Row | Compound | IC50
23 | CCOC(=O)c1c(C)nc2nc3c(c(N)c2c1-c1ccc(C)cc1)CCCCC3 | 12.9 µM
24 | CCOC(=O)c1c(C)nc2nc3c(c(N)c2c1-c1ccccc1OC)CCCCC3 | 21.9 µM
25 | CCOC(=O)c1c(C)nc2nc3c(c(N)c2c1-c1ccc(Cl)cc1)CCCCC3 | 19.1 µM
26 | CCOC(=O)c1c(C)nc2nc3c(c(N)c2c1-c1cccc([N+](=O)[O-])c1)CCCCC3 | 14.1 µM
27 | CCOC(=O)c1c(C)nc2nc3c(c(N)c2c1-c1ccccc1)CCCCCC3 | 17 µM
28 | CCOC(=O)c1c(C)nc2nc3c(c(N)c2c1-c1ccc(OC)cc1)CCCCCC3 | 17 µM
29 | CCOC(=O)C1=C(C)Oc2nc3c(c(N)c2[C@H]1c1ccncc1)CCC3 | 6.61 µM
30 | CCOC(=O)C1=C(C)Oc2nc3c(c(N)c2[C@H]1c1cccs1)CCC3 | 27.5 µM
31 | CCOC(=O)C1=C(C)Oc2nc3c(c(N)c2[C@H]1c1ccc(OC)cc1)CCCC3 | 0.871 µM
32 | CCOC(=O)C1=C(C)Oc2nc3c(c(N)c2[C@H]1c1ccncc1)CCCC3 | 3.02 µM
33 | CCOC(=O)C1=C(C)Oc2nc3c(c(N)c2[C@H]1c1cccnc1)CCCC3 | 7.08 µM
34 | CCOC(=O)C1=C(C)Oc2nc3c(c(N)c2[C@H]1c1cccs1)CCCC3 | 24.5 µM
35 | CCOC(=O)C1=C(C)Oc2nc3c(c(N)c2[C@H]1c1ccco1)CCCC3 | 1.7 µM
36 | CCOC(=O)C1=C(C)Oc2nc3c(c(N)c2[C@H]1c1ccncc1)CCCCC3 | 8.51 µM
37 | CCOC(=O)C1=C(C)Oc2nc3c(c(N)c2[C@H]1c1cccnc1)CCCCC3 | 32.4 µM
38 | CCOC(=O)C1=C(C)Oc2nc3c(c(N)c2[C@H]1c1cccs1)CCCCC3 | 14.5 µM
39 | CCOC(=O)C1=C(C)Oc2nc3c(c(N)c2[C@H]1c1cccc(OC)c1)CCC3 | 24 µM
40 | CCOC(=O)C1=C(C)Oc2nc3c(c(N)c2[C@H]1c1ccc(OC)c(OC)c1)CCC3 | 26.9 µM
41 | CCOC(=O)C1=C(C)Oc2nc3c(c(N)c2[C@H]1c1cccc(OC)c1)CCCC3 | 7.76 µM
42 | CCOC(=O)C1=C(C)Oc2nc3c(c(N)c2[C@H]1c1ccc(OC)c(OC)c1)CCCC3 | 4.57 µM
43 | CCOC(=O)C1=C(C)Oc2nc3c(c(N)c2[C@H]1c1cccc(OC)c1)CCCCC3 | 12.9 µM
44 | CCOC(=O)C1=C(C)Oc2nc3c(c(N)c2[C@H]1c1ccccc1OC)CCCCC3 | 20.9 µM

Row | Compound | IC50
45 | CCOC(=O)C1=C(C)Oc2nc3c(c(N)c2[C@H]1c1ccc(OC)c(OC)c1)CCCCC3 | 33.1 µM
46 | CCOC(=O)C1=C(C)Oc2nc3c(c(N)c2[C@H]1c1ccccc1)CCCC3 | 1.55 µM
47 | CCOC(=O)C1=C(C)Oc2nc3c(c(N)c2[C@H]1c1ccc(C)cc1)CCCC3 | 1.82 µM
48 | CCOC(=O)C1=C(C)Oc2nc3c(c(N)c2[C@H]1c1ccc(Cl)cc1)CCCC3 | 1.95 µM
49 | CCOC(=O)C1=C(C)Oc2nc3c(c(N)c2[C@H]1c1ccc(C#N)cc1)CCCC3 | 3.47 µM
50 | CCOC(=O)c1c(C)nc2nc3c(c(N)c2c1-c1ccc(OC)cc1)CCCCC3 | 1.35 µM
51 | CCOC(=O)c1c(C)nc2nc3c(c(N)c2c1-c1ccc(OC)c(OC)c1)CCCC3 | 1.29 µM
52 | CCOC(=O)c1c(C)nc2nc3c(c(N)c2c1-c1ccc(F)cc1)CCCC3 | 0.708 µM
53 | CCOC(=O)c1c(C)nc2nc3c(c(N)c2c1-c1ccc(F)cc1)CCCCC3 | 5.37 µM
54 | CCOC(=O)c1c(C)nc2nc3c(c(N)c2c1-c1ccc(Cl)cc1)CCCC3 | 1.29 µM
55 | CCOC(=O)c1c(C)nc2nc3c(c(N)c2c1-c1ccc(OC)c(OC)c1)CCCCC3 | 6.46 µM
56 | Cc1nc2nc3c(c(N)c2c(-c2ccccc2)c1C(=O)OC(C)C)CCCC3 | 1.2 µM
57 | CCOC(=O)c1c(C)nc2nc3c(c(N)c2c1-c1ccccc1)CCCC3 | 0.813 µM
58 | CCOC(=O)c1c(C)nc2nc3c(c(N)c2c1-c1ccccc1)CCCCC3 | 20.9 µM
59 | CCOC(=O)c1c(C)nc2nc3c(c(N)c2c1-c1ccc(OC)cc1)CCCC3 | 8.91 µM
60 | CCOC(=O)c1c(C)nc2nc3c(c(N)c2c1-c1ccncc1)CCC3 | 8.13 µM
61 | CCOC(=O)c1c(C)nc2nc3c(c(N)c2c1-c1ccncc1)CCCC3 | 1.41 µM
62 | CCOC(=O)c1c(C)nc2nc3c(c(N)c2c1-c1ccccc1)CCC3 | 12 µM
63 | CCOC(=O)c1c(C)nc2nc3c(c(N)c2c1-c1ccc(OC)cc1)CCC3 | 13.8 µM
64 | CCOC(=O)c1c(C)nc2nc3c(c(N)c2c1-c1cccc(OC)c1)CCCC3 | 1.2 µM
65 | CCOC(=O)c1c(C)nc2nc3c(c(N)c2c1-c1cccc([N+](=O)[O-])c1)CCCC3 | 0.933 µM
66 | CCOC(=O)c1c(C)nc2nc3c(c(N)c2c1-c1ccncc1)CCCCC3 | 5.13 µM

From ChEMBL document CHEMBL3045165, “3D-QSAR study of multi-target-directed AchE inhibitors based on autodocking” (Med Chem Res, 2012)
